In publication PMC12287522 (Scientific Reports, 2025):

Experiments:
[1] = tested on: human lung adenocarcinoma cell line (A549); test: MTT assay, A549 cell line; assay type: cell-based; conditions: SAR discussion
[2] = tested on: human colorectal cancer cell line (HCT116); test: MTT assay, HCT116 cell line; assay type: cell-based; conditions: for IC50: Homo sapiens, HCT-116, read-out: Anticancer activity (IC50) HCT116; for anticancer action against HCT116 (in words): SAR discussion

| Compound | inhibitory potential against A549 (in words) [1] | IC50 [2] [µM] | anticancer action against HCT116 (in words) [2] |
| --- | --- | --- | --- |
| O=C(Cn1cc(COc2ncnc3[nH]cnc23)nn1)NCc1ccc(O)cc1 [5i, 2-(4-(((9 H-purin-6-yl)oxy)methyl)-1 H-1,2,3-triazol-1-yl)-N-(4-hydroxybenzyl)acetamide] | significantly reduced | 7.88 ± 0.6 | moderately inhibited |
| O=C(Cn1cc(COc2ncnc3[nH]cnc23)nn1)Nc1ccc(F)c(Cl)c1 [5e, 2-(4-(((9 H-purin-6-yl)oxy)methyl)-1 H-1,2,3-triazol-1-yl)-N-(3-chloro-4-fluorophenyl)acetamide] | – | 6.11 ± 0.29 | – |
| Cc1ccc(NC(=O)Cn2cc(COc3ncnc4[nH]cnc34)nn2)c(C)c1 [5d, 2-(4-(((9 H-purin-6-yl)oxy)methyl)-1 H-1,2,3-triazol-1-yl)-N-(2,4-dimethylphenyl)acetamide] | – | – | did not exhibit anticancer action |
| O=C(Cn1cc(COc2ncnc3[nH]cnc23)nn1)NCc1ccc(Cl)cc1 [5j, 2-(4-(((9 H-purin-6-yl)oxy)methyl)-1 H-1,2,3-triazol-1-yl)-N-(4-chlorobenzyl)acetamide] | – | 22.6 ± 0.38 | – |
| O=C(Cn1cc(COc2ncnc3[nH]cnc23)nn1)Nc1ccc(O)cc1 [5 h, 2-(4-(((9 H-purin-6-yl)oxy)methyl)-1 H-1,2,3-triazol-1-yl)-N-(4-hydroxyphenyl)acetamide] | – | 12.3 ± 0.52 | moderately inhibited |
| Cc1cncc(NC(=O)Cn2cc(COc3ncnc4[nH]cnc34)nn2)c1 [5a, 2-(4-(((9 H-purin-6-yl)oxy)methyl)-1 H-1,2,3-triazol-1-yl)-N-(5-methylpyridin-3-yl)acetamide] | – | 6.23 ± 0.23 | – |
| COc1cccc(NC(=O)Cn2cc(COc3ncnc4[nH]cnc34)nn2)c1 [5 g, 2-(4-(((9 H-purin-6-yl)oxy)methyl)-1 H-1,2,3-triazol-1-yl)-N-(3-methoxyphenyl)acetamide] | – | > 100 | did not exhibit anticancer action |
| O=Cc1cccc(NC(=O)Cn2cc(COc3ncnc4[nH]cnc34)nn2)c1 [5b, 2-(4-(((9 H-purin-6-yl)oxy)methyl)-1 H-1,2,3-triazol-1-yl)-N-(3-formylphenyl)acetamide] | – | 15.6 ± 0.45 | – |
| O=C(Cn1cc(COc2ncnc3[nH]cnc23)nn1)Nc1ccc([N+](=O)[O-])cc1 [5f, 2-(4-(((9 H-purin-6-yl)oxy)methyl)-1 H-1,2,3-triazol-1-yl)-N-(4-nitrophenyl)acetamide] | significantly reduced | 13.9 ± 0.19 | – |
| Cc1cccc(NC(=O)Cn2cc(COc3ncnc4[nH]cnc34)nn2)c1 [5c, 2-(4-(((9 H-purin-6-yl)oxy)methyl)-1 H-1,2,3-triazol-1-yl)-N-(m-tolyl)acetamide] | significantly reduced | – | – |
| COc1ccc(CNC(=O)Cn2cc(COc3ncnc4[nH]cnc34)nn2)cc1 [5k, 2-(4-(((9 H-purin-6-yl)oxy)methyl)-1 H-1,2,3-triazol-1-yl)-N-(4-methoxybenzyl)acetamide] | – | – | did not exhibit anticancer action |
| COc1cccc2c1C(=O)c1c(O)c3c(c(O)c1C2=O)C[C@@](O)(C(=O)CO)C[C@@H]3O[C@H]1C[C@H](N)[C@H](O)[C@H](C)O1 [DXN, doxorubicin, reference compound] | – | 7.27 ± 0.39 | – |
